Reference: ChEMBL document CHEMBL1156829 (Proc Natl Acad Sci U S A, 2008)

Assays:
Plasmodium falciparum [1] = assay: NOVARTIS: Inhibition of Plasmodium falciparum 3D7 (drug-susceptible) proliferation in erythrocyte-based infection assay; format: functional, organism-based; settings: Plasmodium falciparum, 3D7
Plasmodium falciparum [2] = assay: NOVARTIS: Inhibition of Plasmodium falciparum W2 (drug-resistant) proliferation in erythrocyte-based infection assay; format: functional, organism-based; settings: Plasmodium falciparum, W2; read-out: EC50
[3] = NOVARTIS: Cytotoxicity against human hepatocellular carcinoma cell line (Huh7); format: toxicity, cell-based, Huh-7; settings: Huh7 cells (hepatocellular carcinoma cell line)

With `Cn1nc(C(C)(C)C)cc1C(=O)N1CCCN1C(=O)CNC(=O)c1ccco1` the EC50 (Plasmodium falciparum [1]) was > 0.335 µM, the EC50 (Plasmodium falciparum [2]) was > 1.25 µM and the CC50 [3] was > 10 µM.
In the case of `Cc1ccn2c(NC(C)(C)CC(C)(C)C)c(-c3ccccc3OC(=O)C3C[C@H]3c3ccccc3)nc2c1` (some centres not stated), the EC50 (Plasmodium falciparum [1]) is reported as 0.727 µM, the EC50 (Plasmodium falciparum [2]) is reported as 0.0553 µM and the CC50 [3] is reported as > 10 µM.
With `CC[n+]1c(/C=C/N(C)c2ccccc2)sc(-c2ccccc2)c1-c1ccccc1` the EC50 (Plasmodium falciparum [1]) was 1.1 µM, the EC50 (Plasmodium falciparum [2]) was 0.638 µM and the CC50 [3] was > 10 µM.
In the case of `CC(C)(C)c1ccc(NC(=O)CN2CCCCC2)cc1`, the EC50 (Plasmodium falciparum [1]) is reported as > 12.5 µM, the EC50 (Plasmodium falciparum [2]) is reported as > 8.77 µM and the CC50 [3] is reported as 49.7 µM.
With `COc1ccc(CN2CC(=O)N(c3ccc(Cl)cc3)C2=S)cc1OC` the EC50 (Plasmodium falciparum [1]) was > 1.18 µM, the EC50 (Plasmodium falciparum [2]) was > 1.25 µM and the CC50 [3] was > 10 µM.
With `COC(=O)c1c(S(=O)(=O)N2CCN(C)CC2)sc2c1CCN(CCCc1ccccc1)C2` the EC50 (Plasmodium falciparum [1]) was 1.42 µM, the EC50 (Plasmodium falciparum [2]) was 1.26 µM and the CC50 [3] was > 10 µM.
In the case of `CCCOC(=O)C1=C(C)NC2=C(C(=O)CCC2)C1c1cc(Br)c(O)c(OCC)c1` (configuration not stated), the EC50 (Plasmodium falciparum [1]) is reported as > 12.5 µM, the EC50 (Plasmodium falciparum [2]) is reported as 2.82 µM and the CC50 [3] is reported as > 100 µM.
For `CCSC1=CC(=O)c2ccccc2C1=O`, the EC50 (Plasmodium falciparum [1]) was 0.551 µM, the EC50 (Plasmodium falciparum [2]) was 0.23 µM and the CC50 [3] was 5.17 µM.
With `COc1ccc(-c2cc(C(=O)NCc3cccnc3)no2)cc1OC` the EC50 (Plasmodium falciparum [1]) was > 1.29 µM, the EC50 (Plasmodium falciparum [2]) was 1.7 µM and the CC50 [3] was > 10 µM.
In the case of `Cc1cc(Cl)ccc1OC(C)C(=O)N1CCc2ccccc21` (configuration not stated), the EC50 (Plasmodium falciparum [1]) is reported as 0.632 µM, the EC50 (Plasmodium falciparum [2]) is reported as 0.812 µM and the CC50 [3] is reported as > 100 µM.
For `O=c1[nH]c2cc(Cl)c(Br)nc2[nH]1`, the EC50 (Plasmodium falciparum [1]) was > 1.25 µM, the EC50 (Plasmodium falciparum [2]) was 1.18 µM and the CC50 [3] was > 10 µM.
`CN1CCN(c2nc(NN=Cc3cccc(Cl)c3)nc(Nc3ccc([N+](=O)[O-])cc3)n2)CC1` showed an EC50 (Plasmodium falciparum [1]) of 0.5 µM, an EC50 (Plasmodium falciparum [2]) of 0.29 µM and a CC50 [3] of 43.4 µM.
In the case of `CCC(/C=C1\Sc2ccc3ccccc3c2N1C)=C\c1sc2ccc3ccccc3c2[n+]1C`, the EC50 (Plasmodium falciparum [1]) is reported as 2.61 µM, the EC50 (Plasmodium falciparum [2]) is reported as 6.37 µM and the CC50 [3] is reported as > 100 µM.
Molecule `N#CCSc1nc2ccccc2c2nc(CCc3c[nH]c4ccccc34)nn12` has an EC50 (Plasmodium falciparum [1]) of 3.87 µM, an EC50 (Plasmodium falciparum [2]) of 3.85 µM and a CC50 [3] of 25.4 µM.
In the case of `COc1cccc(C(C(=O)NC2CCCCC2)N(C(=O)c2snc(C(N)=O)c2N)c2ccc(C)cc2)c1OC` (configuration not stated), the EC50 (Plasmodium falciparum [1]) is reported as 3.44 µM, the EC50 (Plasmodium falciparum [2]) is reported as 1.4 µM and the CC50 [3] is reported as > 100 µM.
`CC(=O)Nc1ccc(-c2nc(-c3ccc(Oc4ccc(-c5[nH]c(-c6ccc(NC(C)=O)cc6)nc5-c5ccccc5)cc4)cc3)c(-c3ccccc3)[nH]2)cc1` gave an EC50 (Plasmodium falciparum [1]) of 6.95 µM, an EC50 (Plasmodium falciparum [2]) of 5.59 µM and a CC50 [3] of 50.1 µM.
In the case of `CC(C)(C)c1ccc(CNC(=O)C(Cc2ccc(O)cc2)c2ccccc2)cc1` (configuration not stated), the EC50 (Plasmodium falciparum [1]) is reported as > 8.68 µM, the EC50 (Plasmodium falciparum [2]) is reported as 3.27 µM and the CC50 [3] is reported as 53.2 µM.
For `Cc1ccc2[nH]c3c(NCCN4CCCCC4)ncnc3c2c1`, the EC50 (Plasmodium falciparum [1]) was 0.216 µM, the EC50 (Plasmodium falciparum [2]) was 0.099 µM and the CC50 [3] was 39.7 µM.
For `C#CC(C)(C)NC(=O)c1ccc(-c2ccc(CC)cc2)cc1`, the EC50 (Plasmodium falciparum [1]) was 3.03 µM, the EC50 (Plasmodium falciparum [2]) was 1.97 µM and the CC50 [3] was > 100 µM.
For `O=C(Cc1ccccc1)NC(c1ccc(Cl)cc1)c1ccc2cccnc2c1O` (configuration not stated), the EC50 (Plasmodium falciparum [1]) was 0.209 µM, the EC50 (Plasmodium falciparum [2]) was 0.337 µM and the CC50 [3] was > 100 µM.
`CCOC(=O)COC1=C(CCCCC2CCCCC2)C(=O)c2ccccc2C1=O` showed an EC50 (Plasmodium falciparum [1]) of 0.0581 µM, an EC50 (Plasmodium falciparum [2]) of 1.22 µM and a CC50 [3] of 31 µM.
With `CC(=O)c1ccc(-n2cc(C(=O)C(C)Oc3ccc(Cl)cc3Cl)nn2)cc1` (configuration not stated) the EC50 (Plasmodium falciparum [1]) was 0.0729 µM, the EC50 (Plasmodium falciparum [2]) was 0.192 µM and the CC50 [3] was > 10 µM.
With `Cc1nc(NN=Cc2c(O)ccc3ccccc23)cc(N2CCCCC2)n1` the EC50 (Plasmodium falciparum [1]) was 0.609 µM, the EC50 (Plasmodium falciparum [2]) was 0.339 µM and the CC50 [3] was > 100 µM.
Work on `CC(C)CN1CCC(O)(c2ccc3oc(C(=O)Nc4ccc5c(c4)OCO5)cc3c2)CC1` yielded an EC50 (Plasmodium falciparum [1]) of 1.08 µM, an EC50 (Plasmodium falciparum [2]) of 0.363 µM and a CC50 [3] of 55.2 µM.
In the case of `CCN1CCC(NC2CCCc3c2[nH]c2ccc([N+](=O)[O-])cc32)CC1` (configuration not stated), the EC50 (Plasmodium falciparum [1]) is reported as 0.497 µM, the EC50 (Plasmodium falciparum [2]) is reported as 0.337 µM and the CC50 [3] is reported as 14.5 µM.
With `C=CCSc1nnc2c(n1)[nH]c1ccc(OCC)cc12` the EC50 (Plasmodium falciparum [1]) was 5.62 µM, the EC50 (Plasmodium falciparum [2]) was 0.549 µM and the CC50 [3] was > 100 µM.
In the case of `CCc1cc(=O)n(C)c(SC(C)C(=O)Nc2ccc(F)cc2)n1` (configuration not stated), the EC50 (Plasmodium falciparum [1]) is reported as 0.756 µM, the EC50 (Plasmodium falciparum [2]) is reported as 0.729 µM and the CC50 [3] is reported as > 10 µM.
In the case of `Cc1ccc(-[n+]2c(-c3ccccc3)cn3c2CCCCC3)cc1`, the EC50 (Plasmodium falciparum [1]) is reported as 0.605 µM, the EC50 (Plasmodium falciparum [2]) is reported as 0.515 µM and the CC50 [3] is reported as 67.8 µM.
With `COc1ccc(CCNC(=S)Nc2ccccc2C)cc1OC` the EC50 (Plasmodium falciparum [1]) was 1.09 µM, the EC50 (Plasmodium falciparum [2]) was 0.698 µM and the CC50 [3] was > 100 µM.
In the case of `COc1ccc(CN2CCc3nnc(CCc4ccccc4)n3CC2)c(F)c1`, the EC50 (Plasmodium falciparum [1]) is reported as > 1.06 µM, the EC50 (Plasmodium falciparum [2]) is reported as > 1.25 µM and the CC50 [3] is reported as > 10 µM.
In the case of `O=C(NCCCCCCNC(=O)Nc1ccc(C2=NCCCN2)cc1)Nc1ccc(C2=NCCCN2)cc1`, the EC50 (Plasmodium falciparum [1]) is reported as 0.108 µM, the EC50 (Plasmodium falciparum [2]) is reported as < 0.00328 µM and the CC50 [3] is reported as > 10 µM.
With `Cc1ccc(-c2nn3c(O)c4c(nc3c2C)CCCC4)cc1` the EC50 (Plasmodium falciparum [1]) was 0.256 µM, the EC50 (Plasmodium falciparum [2]) was 0.384 µM and the CC50 [3] was > 100 µM.
With `COC(=O)C1=C(C)N/C(=C\c2cc(C)n(-c3ccccc3C(F)(F)F)c2C)C1=O` the EC50 (Plasmodium falciparum [1]) was 0.0224 µM, the EC50 (Plasmodium falciparum [2]) was 0.0299 µM and the CC50 [3] was > 10 µM.
In the case of `CC(C)(C)c1ccc(O)c(CNC2CCCCC2)c1`, the EC50 (Plasmodium falciparum [1]) is reported as 0.251 µM, the EC50 (Plasmodium falciparum [2]) is reported as 0.0678 µM and the CC50 [3] is reported as 60.1 µM.
